The values below come from ChEMBL document CHEMBL1135908, “Synthesis and biological evaluation of cycloalkylidene carboxylic acids as novel effectors of Ras/Raf interaction” (J Med Chem, 2002).

A word on the EC50: it is the concentration that produces a half-maximal response.

The structures appear in SMILES notation.

A short description of the assay: Cytotoxicity of compound towards Y190 yeast cells. The conditions noted are these: Saccharomyces cerevisiae. It is filed as functional, cell-based.
Consider `COc1ccc(C2CCC(=C(C)C(=O)O)CC2)cc1` (stereo not drawn), for which the half-maximal effective concentration (EC50) was found to be 130 µM. For `CC(C(=O)O)=C1CCC(c2ccccc2)CC1` (stereo not drawn), a half-maximal response (EC50) required 143 µM. For `O=C(O)C=C1CCCC1` the value was > 300 µM; for `O=C(O)C=C1CCCCCC1`, > 300 µM; for `CC(C(=O)O)=C1CCCC1`, > 300 µM.

Turning to `C/C(C(=O)O)=C1\CCCC(C)C1` (stereo not drawn), the EC50 is > 300 µM. Next, `CCCC1CCC(=C(C)C(=O)O)CC1` (stereo not drawn): 74 µM.

`CCC1CCC(=C(C)C(=O)O)CC1` (stereo not drawn): the concentration giving a half-maximal response (EC50) turned out to be 125 µM. Next, `CC(C(=O)O)=C1CCCCC1`: > 300 µM; `CC(C(=O)O)=C1CCC(C)CC1` (stereo not drawn): > 300 µM; `CC(C(=O)O)=C1CCC(C(C)(C)C)CC1` (stereo not drawn): 81 µM. For `CC(C(=O)O)=C1CCCCCC1` the value was > 300 µM. For `O=CC=C1CCCCCC1` the value was > 300 µM.
